In publication PMC4405350, “From Broad-Spectrum Biocides to Quorum Sensing Disruptors and Mussel Repellents: Antifouling Profile of Alkyl Triphenylphosphonium Salts” (PLoS ONE, 2015):

What was measured:
Nitzschia sp. = test: Benthic diatom growth inhibition (chlorophyll-a); format: cell-based; details: 120 h; growth, 5 days, chlorophyll-a; read-out: IC50 Nitzschia sp.
Procedure: (§1) All the biological assays were run by triplicate. […] For the active products, serial dilutions were performed to calculate the half-maximal inhibitory concentrations (IC50) or the minimal inhibitory concentrations (MIC). Unless otherwise stated, the test concentrations were 100, 50, 25, 10, 5, 2.5, 1, 0.5 and 0.1 μM. Dose-response curves were adjusted with GraphPad Prism 5 software using a four-parameter non-linear regression model.
(§2) Five strains of benthic diatoms, Nitszchia sp. […] The Nitzschia and Navicula strains were purchased from the Spanish Bank of Algae (Marine Biotechnology Center, University of Las Palmas de Gran Canaria). The other three strains were kindly provided by Dr. G. Courtois (University of Las Palmas de Gran Canaria). Diatoms were cultured at 19±1 °C in Erlenmeyer flaks (250 ml) containing 150 ml of Guillard’s F/2 medium, and subjected to a photoperiod of 18:6. Tests were run in 48-well plates. Inocula were prepared by adjusting diatom concentration to 2–4 × 10^6 cells ml^-1 using a Neubauer chamber. Test products were dissolved in F/2 medium (500 μl) to which diatom inocula (500 μl) were added. Thus, the final assay volume was 1 ml and the starting cell densities were ca. 1–2 x 10^6 diatoms ml^-1. Plates were incubated under the abovementioned conditions for 5 days and then chlorophyll-a (Chla) was quantified.
(§3) In order to extract Chla, the content of each well was transferred to a microcentrifuge tube and centrifuged at 10,000 rpm for 10 min. The supernatants were discarded and 200 μl of DMSO were added to the pellets. The tubes were incubated at 65 °C for 2 h in total darkness and vortexed every 30 min. Then, the content of each tube was transferred to a 96-well plate and the amount of Chla was determined spectrophotometrically. Path length correction factor for the DMSO extracts was determined.

[1] = tested on: Navicula cf. salinicola BEA 0055; test: Benthic diatom growth inhibition (chlorophyll-a); format: cell-based; details: 120 h; growth, 5 days, chlorophyll-a; read-out: IC50 Navicula cf. salinicola
Procedure: as §1, §2, §3

Amphora sp. = test: Benthic diatom growth inhibition (chlorophyll-a); format: cell-based; details: 120 h; growth, 5 days, chlorophyll-a; read-out: IC50 Amphora sp.
Procedure: as §1, §2, §3

Cylindrotheca sp. = test: Benthic diatom growth inhibition (chlorophyll-a); format: cell-based; details: 120 h; growth, 5 days, chlorophyll-a; read-out: IC50 Cylindrotheca sp.
Procedure: as §1, §2, §3

[2] = tested on: Phaeodactylum tricornutum; test: Benthic diatom growth inhibition (chlorophyll-a); format: cell-based; details: Phaeodactylum tricornutum, 120 h; growth, 5 days, chlorophyll-a; read-out: IC50 P. tricornutum
Procedure: as §1, §2, §3

[3] = tested on: violacein production of C. violaceum CVO26; test: Quorum sensing bioassay: violacein production; format: cell-based, Chromobacterium violaceum; details: 18 h; for IC50: Chromobacterium violaceum, read-out: IC50 (Violacein inhibition); for IC50 (Violacein inhibition): with HHL, compounds 3-5 and 7 tested up to 500 μM, others up to 100 μM
Procedure: (§4) The reporter strain C. violaceum CVO26 (CECT 5999) was used to screen the ability of the products to interfere with violacein production, a QS-regulated phenotype. C. violaceum CVO26 is a mini-Tn5 mutant that depends on an exogenous source of autoinducer (AI) (N-hexanoyl homoserine lactone, HHL) for violacein production. C. violaceum CVO26 was cultured in LB broth (Sigma-Aldrich) supplemented with 25 μg ml^-1 kanamycin. Inocula were prepared by dilution (1:100) of an overnight culture of the reporter strain [49]. One hundred microliters of inoculum with HHL (Sigma-Aldrich, 6 μM) or without the AI were added to 96-well plates containing 100 μl of the appropriate dilutions of the test products in LB. Thus, two sets of plates were prepared. One set of plates (without HHL) was used to evaluate the effect of the products on bacterial growth, whereas the other set of plates (with HHL) was used to evaluate their effect on violacein production. Both sets of plates were incubated at 30 °C with agitation (150 rpm) for 18 h.
(§5) Growth inhibition was quantified in the first batch of plates by re-suspending bacterial pellets and measuring the OD625. From the second batch of plates violacein was extracted and quantified. Briefly, the plates were dried overnight (60 °C) and violacein was re-solubilized by the addition of 200 μl of DMSO. The plates were shaken for 3 h and then the OD590 was determined.
To evaluate the effect of the alkyl triphenylphosphonium salts on QS-regulated phenotypes, an initial screening at the cut-off concentration of 100 μM was conducted with C. violaceum CVO26. The QS model of C. violaceum is relatively simple and consists of an acyl-homoserine lactone synthase (CviI) that produces the AI molecule N-hexanoyl homoserine lactone (HHL, strain ATCC 31532), or N-3-hydroxydecanoyl homoserine lactone (strain ATCC 12472) which is recognized by the cytoplasmic receptor CviR (Fig 4). The reporter strain CVO26 is a CviI::mini-Tn5 mutant of strain ATCC 31532 and thus recognizes HHL. CviR is a DNA-binding transcription factor that activates the expression of the genes encoding the production of violacein, the characteristic purple alkaloid that gives name to the species.
(§6) Indeed, the inhibitions observed in violacein production for long alkyl chains (10–18, 20) were clearly correlated to the biocidal effect exerted by these compounds, with ‘therapeutic ratios’ (IC50 for growth inhibition/IC50 for violacein inhibition) around 1, in general (Table 2). Note that, as the length of the hydrocarbon chain becomes shorter, this ratio increased (8–9). […] To evaluate these compounds in further detail, […] stock solutions were prepared […] to avoid the use of high concentrations of DMSO in the bioassays. […] Serial two-fold dilutions (500–3.9 μM) were assayed. Consequently, the highest amount of DMSO used in the assay was 0.25% (v/v). […] Growth inhibitory effects are only observed at 500 μM, particularly for compound 7 (Fig 6D).

C. violaceum CVO26 = C. violaceum CVO26 growth inhibition (OD625); format: cell-based; details: Chromobacterium violaceum, CVO26, 18 h, read-out: IC50 (Growth inhibition)
Procedure: as §4, §5, §6

Artemia salina nauplii = test: in vivo; details: instar I nauplii, 24 h, 28 °C
Procedure: as §1
Artemia salina cysts (INVE Aquaculture, Ghent, Belgium) were hatched in brackish water (30 ‰ salinity) at 28 °C with aeration and under constant light. Newly hatched instar I nauplii were harvested for bioassays. Tests were conducted in 96-well plates (15±5 nauplii per well, test volume = 200 μl). The number of dead and alive individuals was recorded after 24 h of incubation at 28 °C and 24-hour photoperiod.

Fusarium sp. = test: Marine-derived fungi growth inhibition (OD405); format: cell-based; details: Fusarium, 120 h, 5 days, 26 °C
Procedure: All the biological assays were run by triplicate.
Three strains of marine-derived fungi were kindly provided by Dr. Á. Trigos (University of Veracruz, Mexico). The strains were isolated from reef organisms collected from the Veracruz Reef System and identified as Aspergillus sp., Fusarium sp. and Alternaria sp..
Fungal strains were cultured in Potato-Dextrose Agar (PDA) supplemented with filtered seawater (FSW) (50% v/v) at 26 °C for 5 days prior to experiments. […] Briefly, fungal inocula were prepared by addition of 5 ml of sterile saline solution to the cultures. Gently swabbing released conidia. […] The plates were incubated for 5 days at 26 °C. The calculation of the half-maximal inhibitory concentrations (IC50) was performed using OD405 as endpoint.

| SMILES | IC50 (Nitzschia sp.) | IC50 [1] | IC50 (Amphora sp.) | IC50 (Cylindrotheca sp.) | IC50 [2] | IC50 [3] | IC50 (Violacein inhibition) [3] | IC50 (C. violaceum CVO26) | IC50 A. salina (LC50) (Artemia salina nauplii) | IC50 (Fusarium sp.) |
| --- | --- | --- | --- | --- | --- | --- | --- | --- | --- | --- |
| BrC(Br)[P+](c1ccccc1)(c1ccccc1)c1ccccc1 [Compound 1] | 18.7 µM | 10.6 µM | 19.5 µM | 9.8 µM | 16.8 µM | > 100 µM | inactive | > 100 µM | >100 µM | > 100 µM |
| COC(=O)CCC[P+](c1ccccc1)(c1ccccc1)c1ccccc1 [Compound 2] | 40.2 µM | 50.2 µM | 43.4 µM | 23.7 µM | > 100 µM | > 100 µM | inactive | > 100 µM | >100 µM | > 100 µM |
| C/C=C/C[P+](c1ccccc1)(c1ccccc1)c1ccccc1 [Compound 3] | > 100 µM | 62.2 µM | > 100 µM | > 100 µM | > 100 µM | 92.3 µM | – | > 500 µM | >100 µM | > 100 µM |
| BrCCCC[P+](c1ccccc1)(c1ccccc1)c1ccccc1 [Compound 4] | > 100 µM | > 100 µM | > 100 µM | > 100 µM | > 100 µM | 142 µM | – | > 500 µM | 92.7 µM | > 100 µM |
| CCCCN[P+](c1ccccc1)(c1ccccc1)c1ccccc1 [Compound 5] | 11.9 µM | 8.2 µM | 42.5 µM | 12.6 µM | 81.5 µM | 137 µM | – | > 500 µM | 17.2 µM | > 100 µM |
| O=S(=O)([O-])CCCC[P+](c1ccccc1)(c1ccccc1)c1ccccc1 [Compound 6] | > 100 µM | > 100 µM | > 100 µM | 21.3 µM | > 100 µM | > 100 µM | – | > 100 µM | >100 µM | > 100 µM |
| CCCCC[P+](c1ccccc1)(c1ccccc1)c1ccccc1 [Compound 7] | > 100 µM | > 100 µM | > 100 µM | > 100 µM | > 100 µM | 52.9 µM | – | > 500 µM | >100 µM | > 100 µM |
| CCCCCCC[P+](c1ccccc1)(c1ccccc1)c1ccccc1 [Compound 8, heptyl triphenylphosphonium bromide] | 20.8 µM | 6.4 µM | 37.6 µM | 10.6 µM | 92.2 µM | 19 µM | – | 52.5 µM | 20.4 µM | > 100 µM |
| CCCCCCCCC[P+](c1ccccc1)(c1ccccc1)c1ccccc1 [Compound 9] | 3.6 µM | 2.7 µM | 6.2 µM | 1.9 µM | 11.2 µM | 7.6 µM | – | 16 µM | 2.0 µM | 31.4 µM |
| CCCCCCCCCC[P+](c1ccccc1)(c1ccccc1)c1ccccc1 [Compound 10] | 2.5 µM | 2.3 µM | 3.2 µM | 1 µM | 1.9 µM | 7.7 µM | – | 11.9 µM | 1.4 µM | 21 µM |
| CCCCCCCCCCC[P+](c1ccccc1)(c1ccccc1)c1ccccc1 [Compound 11] | 2.3 µM | 1.5 µM | 3.3 µM | 1 µM | 1.7 µM | 3.5 µM | – | 4.9 µM | 1.8 µM | 5.3 µM |
| O=C(O)CCCCCCCCCC[P+](c1ccccc1)(c1ccccc1)c1ccccc1 [Compound 19] | > 100 µM | > 100 µM | 75.5 µM | 24.1 µM | > 100 µM | > 100 µM | – | > 100 µM | – | > 100 µM |
